Experimental findings from ChEMBL document CHEMBL1201862, “PubChem BioAssay data set” (2004) are described below.

Among the test systems are T47D; OVCAR-4; MDA-N; HOP-62; SR; HCC 2998; NCI-H460; TK-10; LOX IMVI; CAKI-1; SK-MEL-5; OVCAR-5; HCT-116; UO-31; SF-539; DU-145; CCRF-CEM; HCT-15; SK-OV-3.
Common to all, as to assay: growth of human tumour cells (NCI), 48 h

Molecules are shown by their SMILES.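 Step 1: Grow cells in 96-well plates. Step 2: Expose to compound for 48 hours at 5 concentrations. Step 3: Interpolate endpoints linearly; if unreached, use highest concentration. GI50 is the concentration that inhibits growth by half.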 Activity calls are given as the source filed them. Cut-off read from the data, not from the text of the source: active = GI50 up to about 1.1 µM and inactive = higher. Bounds are passed on as bounds.

Regarding `O=c1cc(O)c2ccccc2o1` [4-HYDROXYCOUMARINS], the GI50 with T47D, in the experiment with OVCAR-4, in the experiment with MDA-N, in the experiment with HOP-62, in the experiment with SR and with HCC 2998 was > 100 µM (inactive) in each case. Also, the GI50 with NCI-H460, in the experiment on TK-10, in the experiment with LOX IMVI, with CAKI-1, with SK-MEL-5 and in the experiment on OVCAR-5 was > 100 µM (inactive) each time. Also, the GI50 in the experiment on HCT-116, in the experiment on UO-31, in the experiment with SF-539, with DU-145 and in the experiment on CCRF-CEM was > 100 µM (inactive) in each case.

On to `CN(N=O)N1C(=O)SCC(c2ccccc2)(c2ccccc2)C1=O`, for which the GI50 with T47D is 67.8 µM (inactive); in the experiment on HCT-15, 41.7 µM; in the experiment on MDA-N it was 28.4 µM (inactive); in the experiment with HOP-62, 65.9 µM (inactive); with SR it was 37.5 µM (inactive); in the experiment with HCC 2998 it was 89.1 µM (inactive). The GI50 was 9.62 µM (inactive) with NCI-H460; 50.2 µM (inactive) in the experiment on TK-10; 25.2 µM (inactive) in the experiment with SK-OV-3; 30 µM (inactive) in the experiment with LOX IMVI; 46.3 µM (inactive) in the experiment with CAKI-1; 37.8 µM (inactive) in the experiment on SK-MEL-5. The GI50 in the experiment with OVCAR-5 is > 100 µM (inactive); in the experiment on HCT-116, 40.4 µM (inactive); in the experiment with UO-31 it was 25.8 µM (inactive); in the experiment with SF-539 it was 21.9 µM (inactive); in the experiment on DU-145, 91 µM (inactive); in the experiment with CCRF-CEM, 31.1 µM (inactive).

Consider `C/C(=N/OC(=O)c1cccc2c(=O)c3ccccc3[nH]c12)[C@H]1CC[C@H]2[C@@H]3CCC4=C/C(=N/OC(=O)c5cccc6c(=O)c7ccccc7[nH]c56)CC[C@]4(C)[C@H]3CC[C@]12C`, for which the GI50 is 14.5 µM (inactive) with T47D; 34 µM (inactive) with OVCAR-4; 14 µM in the experiment with HCT-15; 14.1 µM (inactive) with MDA-N; 24.8 µM (inactive) with HOP-62; 3.61 µM (inactive) in the experiment on SR. In addition, the GI50 with HCC 2998 is 14 µM (inactive); with TK-10, 17.8 µM (inactive); in the experiment on SK-OV-3, 27 µM (inactive); in the experiment with LOX IMVI, 12.9 µM (inactive); with CAKI-1, 21.2 µM (inactive); in the experiment on SK-MEL-5, 13.1 µM (inactive). Besides, the GI50 with OVCAR-5 is 17.4 µM (inactive); in the experiment with HCT-116 it was 12.5 µM (inactive); in the experiment on UO-31, 15 µM (inactive); in the experiment on SF-539, 15.1 µM (inactive); in the experiment with DU-145, 22.7 µM (inactive); in the experiment on CCRF-CEM, 2.4 µM (inactive).

Take `O=C1Nc2ccccc2C1S(=O)(=O)c1ccccc1` (stereo not given): the GI50 is > 100 µM (inactive) with T47D; > 100 µM (inactive) in the experiment with OVCAR-4; above 100 µM in the experiment with HCT-15; > 100 µM (inactive) in the experiment on MDA-N; > 100 µM (inactive) in the experiment on HOP-62; > 100 µM (inactive) in the experiment with SR. For the same compound, the GI50 in the experiment with HCC 2998, in the experiment on NCI-H460, in the experiment on TK-10, in the experiment on SK-OV-3, in the experiment on LOX IMVI and with CAKI-1 was > 100 µM (inactive) throughout. Moreover, the GI50 in the experiment with SK-MEL-5, in the experiment on OVCAR-5, in the experiment with HCT-116, in the experiment with UO-31, in the experiment with DU-145 and in the experiment on CCRF-CEM was > 100 µM (inactive) in each case.

As to `COc1cccc(CCCNC(=O)Cc2cc(OC)c(OC)cc2CO)c1`, the GI50 with T47D was 39.1 µM (inactive); with OVCAR-4, > 100 µM (inactive); in the experiment with HCT-15, above 100 µM; with MDA-N, > 100 µM (inactive); in the experiment on HOP-62 it was > 100 µM (inactive); in the experiment with SR it was > 100 µM (inactive). The GI50 with HCC 2998 was > 100 µM (inactive); in the experiment with NCI-H460 it was > 100 µM (inactive); with TK-10 it was > 100 µM (inactive); in the experiment with LOX IMVI, > 100 µM (inactive); in the experiment with CAKI-1 it was > 100 µM (inactive); in the experiment with SK-MEL-5, 83.2 µM (inactive). In addition, the GI50 in the experiment on OVCAR-5, with HCT-116, in the experiment with UO-31, in the experiment on DU-145 and with CCRF-CEM was > 100 µM (inactive) each time.

In the case of `Clc1ccc(/N=C/c2cc3cc(Br)ccc3nc2Cl)cc1`, the GI50 with T47D is > 50 µM (inactive); in the experiment on OVCAR-4, 5.12 µM (inactive); with HCT-15, 14.2 µM; with MDA-N it was 11.2 µM (inactive); in the experiment on SR it was 10.1 µM (inactive); with HCC 2998, 32.3 µM (inactive). Further, the GI50 with NCI-H460 was 18.1 µM (inactive); in the experiment on LOX IMVI, 6.18 µM (inactive); in the experiment with CAKI-1, 1.95 µM (inactive); in the experiment on SK-MEL-5, 6.59 µM (inactive); with OVCAR-5, > 50 µM (inactive); with HCT-116 it was 12 µM (inactive). Also, the GI50 with UO-31 was 36.8 µM (inactive); in the experiment on SF-539, 21.4 µM (inactive); in the experiment on DU-145, > 50 µM (inactive); in the experiment on CCRF-CEM, 9.08 µM (inactive).

Turning to `Cc1cc2nnn(C3CCCO3)c2cc1C` (stereo not given), the GI50 is > 100 µM (inactive) with T47D; above 100 µM in the experiment with HCT-15; > 100 µM (inactive) in the experiment on MDA-N; > 100 µM (inactive) in the experiment on HOP-62; > 100 µM (inactive) with SR; > 100 µM (inactive) in the experiment with HCC 2998. Also, the GI50 in the experiment on NCI-H460, in the experiment with TK-10, with SK-OV-3, in the experiment with CAKI-1, with SK-MEL-5 and in the experiment with OVCAR-5 was > 100 µM (inactive) in each case. For the same compound, the GI50 in the experiment with HCT-116, in the experiment with SF-539, with DU-145 and with CCRF-CEM was > 100 µM (inactive) each time.

In the case of `CCOc1cc(C2SCC(=O)N2c2ccc3c(c2)Oc2c(Cl)c4c(c(Cl)c2=N3)Oc2cc(N3C(=O)CSC3c3ccc(O)c(OCC)c3)ccc2N=4)ccc1O` (stereo not given), the GI50 with T47D is 11 µM (inactive); in the experiment on OVCAR-4, 46.3 µM (inactive); in the experiment on HCT-15 it was 43.1 µM; in the experiment on MDA-N it was 34.8 µM (inactive); in the experiment on HOP-62, 31.6 µM (inactive); in the experiment on SR, 2.08 µM (inactive). The GI50 is 21.9 µM (inactive) with HCC 2998; 30.6 µM (inactive) in the experiment with NCI-H460; 41.7 µM (inactive) in the experiment with TK-10; 35.2 µM (inactive) in the experiment on LOX IMVI; > 100 µM (inactive) in the experiment with CAKI-1; 45.8 µM (inactive) in the experiment on SK-MEL-5. For the same compound, the GI50 with OVCAR-5 was > 100 µM (inactive); in the experiment with HCT-116 it was 18 µM (inactive); with UO-31, 68.1 µM (inactive); in the experiment on SF-539, 14.9 µM (inactive); with DU-145, 29.9 µM (inactive).

As for `Cc1nn(C(=O)Cc2ccccc2)c2c1C(c1ccc(O)cc1O)SC(=N)N2` (stereo not given), the GI50 with T47D is > 100 µM (inactive); in the experiment with HCT-15, above 100 µM; with MDA-N, > 100 µM (inactive); with HOP-62, > 100 µM (inactive); in the experiment on SR, > 100 µM (inactive); in the experiment on HCC 2998, > 100 µM (inactive). In addition, the GI50 in the experiment with NCI-H460, with TK-10, in the experiment on SK-OV-3, in the experiment with LOX IMVI, in the experiment on CAKI-1 and in the experiment with SK-MEL-5 was > 100 µM (inactive) throughout. For the same compound, the GI50 with HCT-116, with UO-31, with SF-539, with DU-145 and with CCRF-CEM was > 100 µM (inactive) throughout.

Take `CCCCCCCCOC1C(O)C(O)C(O)C(O)C12CO2` (stereo not given): the GI50 in the experiment with T47D is 63.2 µM (inactive); with HCT-15, 50.4 µM; with MDA-N, 32.4 µM (inactive); in the experiment on HOP-62, 44.6 µM (inactive); with SR, 48.4 µM (inactive); in the experiment on HCC 2998, 68.5 µM (inactive). The GI50 was 45.4 µM (inactive) with NCI-H460; > 100 µM (inactive) with TK-10; 38.3 µM (inactive) in the experiment with SK-OV-3; 48.4 µM (inactive) in the experiment with LOX IMVI; 90.4 µM (inactive) in the experiment with CAKI-1; > 10 µM (inactive) with SK-MEL-5. The GI50 with OVCAR-5 is > 10 µM (inactive); in the experiment with HCT-116, 41 µM (inactive); in the experiment with UO-31, 78 µM (inactive); in the experiment on SF-539, > 100 µM (inactive); with DU-145 it was 76.6 µM (inactive); with CCRF-CEM, 28.3 µM (inactive).

As to `O=C1CC(=O)NC(NN2C(=O)CSC2c2ccccc2)=N1` (stereo not given), the GI50 with T47D was > 100 µM (inactive); in the experiment with OVCAR-4, > 100 µM (inactive); with HCT-15 it was above 100 µM; in the experiment with MDA-N it was > 100 µM (inactive); with HOP-62 it was > 100 µM (inactive); in the experiment with SR, > 100 µM (inactive). Besides, the GI50 in the experiment on HCC 2998, in the experiment on NCI-H460, in the experiment on TK-10, in the experiment with SK-OV-3, in the experiment on CAKI-1 and with SK-MEL-5 was > 100 µM (inactive) each time. For the same compound, the GI50 in the experiment with OVCAR-5, in the experiment with HCT-116, in the experiment on UO-31, with SF-539, in the experiment on DU-145 and with CCRF-CEM was > 100 µM (inactive) each time.
